“And” between values parts separate entries of the source, which are not always exact repeats. Equal entries are not always repeated. Where two headings read alike, the source gives them in different places.
Columns and labels:
TbAQP2 L218M = TbAQP2 L218M (Trypanosoma brucei brucei, UniProt Q6ZXT3, L218M); experiment: [3H]-pentamidine transport; type: cell-based; details: AQP2 mutant L218M; n=3
[1] = test system: tbaqp2/tbaqp3 null cells expressing TbAQP2^I110W; type: cell-based, Trypanosoma brucei brucei
[2] = test system: tbaqp2/tbaqp3 null cells expressing TbAQP2^L84W/L118W; experiment: Drug sensitivity assay (resazurin); type: cell-based, Trypanosoma brucei brucei; details: Fig. 4A, L84W/L118W in aqp2/aqp3 null, read-out: Alamar blue EC50, single repeats
[3] = test system: tbaqp2/tbaqp3 null cells expressing TbAQP2^W192G; type: cell-based, Trypanosoma brucei brucei
[4] = test system: tbaqp2/tbaqp3 null cells expressing TbAQP2 L218W; experiment: microbe, parasite or virus in culture; type: cell-based, Trypanosoma brucei brucei
TbAQP2/HAPT1 [5] = target: T1, TbAQP2/HAPT1 (Trypanosoma brucei brucei, UniProt Q6ZXT3); details: cited from earlier work
tbaqp1-2-3 null cells = experiment: Drug sensitivity assay (resazurin), pentamidine and SHAM; type: cell-based, Trypanosoma brucei brucei; details: KO AQP1-3
T. b. brucei 2T1 = type: cell-based, Trypanosoma brucei brucei
TbAQP3^W102I/R256L/Y250L = TbAQP3^W102I/R256L/Y250L (Trypanosoma brucei brucei, UniProt Q6ZXT2, R256L/W102I/Y250L); experiment: [3H]-pentamidine transport; type: cell-based; details: AQP3 W102I/R256L/Y250L; over 30 minutes
TbAQP2^L84W/L118W = TbAQP2^L84W/L118W (Trypanosoma brucei brucei, UniProt Q6ZXT3, L118W/L84W); experiment: [3H]-pentamidine transport; type: cell-based; details: AQP2 mutant L84W/118W; n=3
TbAQP2^S131P/S263A = TbAQP2^S131P/S263A (Trypanosoma brucei brucei, UniProt Q6ZXT3, S131P/S263A); experiment: [3H]-pentamidine transport; type: cell-based; details: 30 nM [3H]-pentamidine
TbAQP2 L218W = TbAQP2 L218W (Trypanosoma brucei brucei, UniProt Q6ZXT3, L218W); experiment: [3H]-pentamidine transport; type: cell-based; details: AQP2 mutant L218W; n=4
TbAQP2^L264R = TbAQP2^L264R (Trypanosoma brucei brucei, UniProt Q6ZXT3, L264R); experiment: [3H]-pentamidine transport; type: cell-based; details: 30 nM [3H]-pentamidine
TbAQP2 L84W = TbAQP2 L84W (Trypanosoma brucei brucei, UniProt Q6ZXT3, L84W); experiment: [3H]-pentamidine transport; type: cell-based; details: AQP2 mutant L84W; n=5
[6] = test system: tbaqp2/tbaqp3 null cells expressing TbAQP3; type: cell-based, Trypanosoma brucei brucei
TbAQP2/HAPT1 [7] = target: T1, TbAQP2/HAPT1; experiment: cell-based; type: cell-based
[8] = test system: tbaqp1-2-3 null cells expressing TbAQP2WT; experiment: Drug sensitivity assay (resazurin), pentamidine and SHAM; type: cell-based, Trypanosoma brucei brucei; details: Trypanosoma brucei, +AQP2 W.T in aqp1-3 triple KO; 3 repeats; read-out: Alamar blue EC50, MEAN
TbAQP2 L84M = TbAQP2 L84M (Trypanosoma brucei brucei, UniProt Q6ZXT3, L84M); experiment: [3H]-pentamidine transport; type: cell-based; details: AQP2 mutant L84M; n=3
TbAQP2^I190T [9] = experiment: cell-based; set-up: species or system Trypanosoma brucei brucei; details: TbAQP2^I190T cells; read-out: Km of lower affinity segment (LAPT1)
TbAQP2^I190T [10] = target: T2, TbAQP2^I190T (Trypanosoma brucei brucei, UniProt Q6ZXT3, I190T); experiment: cell-based
T2 sequence (Q6ZXT3 1-312 I190T): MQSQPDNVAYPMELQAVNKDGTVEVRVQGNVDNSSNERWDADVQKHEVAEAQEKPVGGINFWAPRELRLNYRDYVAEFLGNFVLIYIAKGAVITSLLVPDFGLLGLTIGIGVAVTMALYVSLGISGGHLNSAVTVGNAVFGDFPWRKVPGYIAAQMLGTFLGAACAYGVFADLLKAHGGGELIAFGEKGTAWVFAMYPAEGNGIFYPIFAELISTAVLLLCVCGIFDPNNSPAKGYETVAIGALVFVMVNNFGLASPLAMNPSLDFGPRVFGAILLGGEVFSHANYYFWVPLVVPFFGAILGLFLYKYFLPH

CRK12 RNAi cells = experiment: [3H]-pentamidine transport after CRK12 RNAi induction (endocytosis defect); type: cell-based, Trypanosoma brucei
[11] = test system: tbaqp2/tbaqp3 null cells expressing TbAQP2 L84W; experiment: microbe, parasite or virus in culture; type: cell-based, Trypanosoma brucei brucei
TbAQP2 L118W = TbAQP2 L118W (Trypanosoma brucei brucei, UniProt Q6ZXT3, L118W); experiment: [3H]-pentamidine transport; type: cell-based; details: AQP2 mutant L118W; n=6
[12] = test system: tbaqp2/tbaqp3 null cells expressing TbAQP2^S131P/S263A; type: cell-based, Trypanosoma brucei brucei
[13] = test system: tbaqp2/tbaqp3 null cells expressing TbAQP2^I190T/W192G; type: cell-based, Trypanosoma brucei brucei
[14] = Trypanosoma brucei, read-out: Alamar blue EC50, MEAN
[15] = Trypanosoma brucei, read-out: Alamar blue EC50, single repeats
[16] = Trypanosoma brucei, read-out: EC50 AVG
[17] = read-out: Alamar blue EC50, single repeats
[18] = Fig. 3A, exp AQP038-AQP041, AQP2 mutant I190T

T1 sequence (Q6ZXT3 whole entry): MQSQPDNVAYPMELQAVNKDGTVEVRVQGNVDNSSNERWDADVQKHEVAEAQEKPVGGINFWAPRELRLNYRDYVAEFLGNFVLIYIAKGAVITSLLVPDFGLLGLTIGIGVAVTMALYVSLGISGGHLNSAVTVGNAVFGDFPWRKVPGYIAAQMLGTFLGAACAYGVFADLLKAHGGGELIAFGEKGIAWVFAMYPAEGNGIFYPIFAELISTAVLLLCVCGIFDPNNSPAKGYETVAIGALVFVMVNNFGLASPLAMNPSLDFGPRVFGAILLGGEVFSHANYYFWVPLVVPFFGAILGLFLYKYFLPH
Chain of TbAQP2^L84W/L118W (Q6ZXT3 whole entry L84W/L118W): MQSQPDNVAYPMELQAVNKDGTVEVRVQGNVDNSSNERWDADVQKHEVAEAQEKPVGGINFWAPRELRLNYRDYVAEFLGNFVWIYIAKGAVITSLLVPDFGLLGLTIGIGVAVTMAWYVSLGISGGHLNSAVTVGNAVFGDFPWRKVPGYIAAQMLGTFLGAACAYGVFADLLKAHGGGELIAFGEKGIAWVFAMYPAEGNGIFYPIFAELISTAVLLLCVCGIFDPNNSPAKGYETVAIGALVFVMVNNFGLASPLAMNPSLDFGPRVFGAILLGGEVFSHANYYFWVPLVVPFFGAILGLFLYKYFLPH
Chain of TbAQP2 L84W (Q6ZXT3 whole entry L84W): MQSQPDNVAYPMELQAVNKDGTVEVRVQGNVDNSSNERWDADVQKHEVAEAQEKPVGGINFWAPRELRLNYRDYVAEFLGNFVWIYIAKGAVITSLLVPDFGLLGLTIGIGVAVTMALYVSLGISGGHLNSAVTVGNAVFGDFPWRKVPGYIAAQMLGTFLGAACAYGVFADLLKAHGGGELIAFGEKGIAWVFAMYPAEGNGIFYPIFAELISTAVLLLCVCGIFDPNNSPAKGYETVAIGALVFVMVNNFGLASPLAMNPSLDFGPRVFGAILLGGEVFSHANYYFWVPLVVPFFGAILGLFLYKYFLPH
Chain of TbAQP2^L264R (Q6ZXT3 whole entry L264R): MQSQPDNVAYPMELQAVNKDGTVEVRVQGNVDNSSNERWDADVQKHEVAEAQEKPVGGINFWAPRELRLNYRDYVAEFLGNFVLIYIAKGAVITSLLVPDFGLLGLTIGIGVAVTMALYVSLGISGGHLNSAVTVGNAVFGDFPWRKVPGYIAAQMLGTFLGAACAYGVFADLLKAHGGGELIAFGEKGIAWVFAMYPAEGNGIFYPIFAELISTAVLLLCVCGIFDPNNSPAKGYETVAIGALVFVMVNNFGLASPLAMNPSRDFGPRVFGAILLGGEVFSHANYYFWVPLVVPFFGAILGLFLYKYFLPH
Chain of TbAQP2 L118W (Q6ZXT3 whole entry L118W): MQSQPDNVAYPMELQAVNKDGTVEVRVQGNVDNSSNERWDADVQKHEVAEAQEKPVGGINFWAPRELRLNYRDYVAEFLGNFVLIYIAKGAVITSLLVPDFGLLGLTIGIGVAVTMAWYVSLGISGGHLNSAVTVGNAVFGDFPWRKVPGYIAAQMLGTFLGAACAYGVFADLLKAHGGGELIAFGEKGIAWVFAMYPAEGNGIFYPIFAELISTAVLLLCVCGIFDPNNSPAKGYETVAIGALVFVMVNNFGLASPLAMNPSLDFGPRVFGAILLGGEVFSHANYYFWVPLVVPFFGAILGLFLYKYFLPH
Chain of TbAQP2 L84M (Q6ZXT3 whole entry L84M): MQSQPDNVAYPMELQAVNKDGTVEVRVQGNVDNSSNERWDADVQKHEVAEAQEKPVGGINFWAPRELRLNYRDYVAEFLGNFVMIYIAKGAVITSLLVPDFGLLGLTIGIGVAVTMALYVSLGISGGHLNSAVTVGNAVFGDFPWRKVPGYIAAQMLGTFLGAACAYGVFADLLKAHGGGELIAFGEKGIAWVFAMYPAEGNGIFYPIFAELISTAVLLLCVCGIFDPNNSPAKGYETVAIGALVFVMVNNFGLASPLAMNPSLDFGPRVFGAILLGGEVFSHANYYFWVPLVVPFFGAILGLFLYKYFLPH
Chain of TbAQP2 L218W (Q6ZXT3 whole entry L218W): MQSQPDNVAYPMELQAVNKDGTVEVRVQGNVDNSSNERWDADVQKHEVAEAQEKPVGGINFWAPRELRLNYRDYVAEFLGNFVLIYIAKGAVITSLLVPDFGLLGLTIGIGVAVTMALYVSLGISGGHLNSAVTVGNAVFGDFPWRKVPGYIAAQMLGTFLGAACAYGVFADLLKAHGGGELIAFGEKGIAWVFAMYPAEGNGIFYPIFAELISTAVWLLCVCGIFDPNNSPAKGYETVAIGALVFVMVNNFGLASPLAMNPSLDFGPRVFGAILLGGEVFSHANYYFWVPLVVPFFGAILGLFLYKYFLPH
Chain of TbAQP3^W102I/R256L/Y250L (Q6ZXT2 whole entry W102I/Y250L/R256L): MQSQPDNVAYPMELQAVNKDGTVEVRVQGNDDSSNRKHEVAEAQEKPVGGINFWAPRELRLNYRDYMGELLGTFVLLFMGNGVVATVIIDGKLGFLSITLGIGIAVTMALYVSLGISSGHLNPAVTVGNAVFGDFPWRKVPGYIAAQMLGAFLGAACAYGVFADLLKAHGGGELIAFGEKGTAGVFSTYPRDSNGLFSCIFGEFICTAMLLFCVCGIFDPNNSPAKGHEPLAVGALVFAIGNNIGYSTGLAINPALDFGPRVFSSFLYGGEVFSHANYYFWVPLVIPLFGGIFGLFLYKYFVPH
Chain of TbAQP2^S131P/S263A (Q6ZXT3 whole entry S131P/S263A): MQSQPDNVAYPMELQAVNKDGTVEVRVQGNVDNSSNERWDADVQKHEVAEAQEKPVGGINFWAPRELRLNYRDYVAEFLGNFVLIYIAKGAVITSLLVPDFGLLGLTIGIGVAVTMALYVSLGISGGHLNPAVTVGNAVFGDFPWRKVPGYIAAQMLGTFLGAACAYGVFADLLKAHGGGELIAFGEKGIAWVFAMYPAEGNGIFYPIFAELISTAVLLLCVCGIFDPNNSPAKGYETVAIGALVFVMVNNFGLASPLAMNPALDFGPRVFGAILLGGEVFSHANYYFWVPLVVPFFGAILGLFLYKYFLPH
Chain of TbAQP2 L218M (Q6ZXT3 whole entry L218M): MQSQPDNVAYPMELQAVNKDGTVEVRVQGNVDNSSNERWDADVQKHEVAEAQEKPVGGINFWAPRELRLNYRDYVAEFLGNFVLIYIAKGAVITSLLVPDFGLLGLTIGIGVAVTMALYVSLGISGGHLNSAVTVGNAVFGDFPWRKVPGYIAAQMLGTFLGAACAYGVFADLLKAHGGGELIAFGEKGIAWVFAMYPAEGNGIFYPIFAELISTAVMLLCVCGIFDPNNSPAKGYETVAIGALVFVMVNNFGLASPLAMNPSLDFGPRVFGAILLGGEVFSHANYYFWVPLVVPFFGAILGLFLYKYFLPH

N=C(N)c1ccc(OCCCCCOc2ccc(C(=N)N)cc2)cc1 [Pentamidine]
Pentamidine transport rate AVG (TbAQP2 L218M): 0.004612 pmol/10E7 cells/s | EC50, percent of AQP2/3 null EC50 [1]: 122.13% | EC50 [2]: 65.7 nM | EC50 ([2]; Trypanosoma brucei): 53.4 nM | EC50 as percent of AQP2/3 null EC50, MEAN [3]: 8.08% | EC50 [4, 14]: 4.39 nM | EC50 [4, 15]: 4 nM | EC50 [4, 16]: 4.4 nM | EC50 [4, 17]: 3.9 nM and 5.3 nM | Gibbs free energy of pentamidine/AQP2 interaction (TbAQP2/HAPT1 [5]): -10 kcal/mol | EC50 (tbaqp1-2-3 null cells; [17]): 75.4 nM and 63.9 nM | EC50 (tbaqp1-2-3 null cells; Trypanosoma brucei, 3 repeats, read-out: Alamar blue EC50, MEAN): 69.3 nM | EC50 (tbaqp1-2-3 null cells; [15]): 68.7 nM | Transport rate AVG (T. b. brucei 2T1): 21.86 | Pentamidine transport rate (TbAQP3^W102I/R256L/Y250L): 2.46E-04 pmol/10E7 cells/s | Pentamidine transport rate AVG (TbAQP2^L84W/L118W): 0.0002985 pmol/10E7 cells/s | Pentamidine transport rate (TbAQP2^S131P/S263A): 0.00111 pmol/10E7 cells/s | Pentamidine transport rate AVG (TbAQP2 L218W): 0.002093 pmol/10E7 cells/s | Pentamidine transport rate (TbAQP2^L264R): 0.00017 pmol/10E7 cells/s | Pentamidine transport rate AVG (TbAQP2 L84W): 0.0006628 pmol/10E7 cells/s | EC50 as percent of AQP2/3 null EC50, MEAN [6]: 105.70% | ΔG0 (TbAQP2/HAPT1 [7]): -10.2 kcal/mol | ΔG^0 (binding energy of substrate-transporter pair) (TbAQP2/HAPT1 [7]): -10.2 kcal/mol | δ(ΔG0) (TbAQP2/HAPT1 [7]): 0 kcal/mol | Ki (TbAQP2/HAPT1 [7]; Ki): 36 ± 0.6 nM | Ki (TbAQP2/HAPT1 [7]; Ki / affinity): 35 nM | EC50 [8]: 1.1 nM | Pentamidine transport rate AVG (TbAQP2 L84M): 0.003585 pmol/10E7 cells/s | Km (TbAQP2^I190T [9]): 59.9 ± 9.1 µM | IC50 (TbAQP2^I190T [10]): 30.9 ± 12.2 nM | Pentamidine transport rate as percent of +AQP2-WT, AVG (TbAQP2^I190T [10]; [18]): 2.728% | Pentamidine transport rate, AVG (TbAQP2^I190T [10]; [18]): 0.0008657 pmol/10E7 cells/s | Pentamidine transport rate, single experiments (TbAQP2^I190T [10]; [18]): 0.0007167 pmol/10E7 cells/s and 0.001156 pmol/10E7 cells/s and 0.0009528 pmol/10E7 cells/s and 0.0006372 pmol/10E7 cells/s | pentamidine uptake rate, CRK+tet, AVERAGE (CRK12 RNAi cells; CRK12 RNAi induced (+tet), 4 experiments): 0.00587 pmol/1E7 cells/s-1 | pentamidine uptake rate, CRK+tet (CRK12 RNAi cells; CRK12 RNAi induced (+tet), single experiments): 0.00804 pmol/1E7 cells/s-1 and 0.004193 pmol/1E7 cells/s-1 and 0.006636 pmol/1E7 cells/s-1 and 0.004619 pmol/1E7 cells/s-1 | pentamidine uptake rate, CRK-tet, AVERAGE (CRK12 RNAi cells; CRK12 RNAi not induced (-tet), 4 experiments): 0.00656 pmol/1E7 cells/s-1 | EC50 [11, 14]: 32 nM | EC50 [11, 15]: 34.5 nM | EC50 [11, 16]: 32 nM | EC50 [11, 17]: 33.6 nM and 27.8 nM | Pentamidine transport rate AVG (TbAQP2 L118W): 0.0006283 pmol/10E7 cells/s | EC50, percent of AQP2/3 null EC50 [12]: 1.92% | EC50 as percent of AQP2/3 null EC50, MEAN [13]: 99.52% | EC50 as percent of AQP2/3 null EC50, single repeats [13]: 131.67% and 89.434% and 77.4635%

— paper PMC7473772 (eLife, 2020)
